Laboratory results taken from PubChem BioAssay (NCI).
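Five compound concentrations were applied to cells in 96-well plates for 48 hours; endpoints were derived by simple linear interpolation of the resulting dose-response curve. TGI is the concentration that stops growth completely.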

How the values were obtained:
Assay in all cases: DTP human tumour cell line panel, 48 h
NCI-H23 lung = test system: NCI-H23 lung
OVCAR-4 ovarian = test system: OVCAR-4 ovarian
SNB-75 CNS = test system: SNB-75 CNS
UO-31 renal = test system: UO-31 renal
A549 NSCLC = test system: A549 NSCLC
MDA-N = test system: MDA-N
HCC-2998 colon = test system: HCC-2998 colon
U251 CNS = test system: U251 CNS
MDA-MB-231 breast = test system: MDA-MB-231 breast
SK-MEL-28 melanoma = test system: SK-MEL-28 melanoma
IGROV1 ovarian = test system: IGROV1 ovarian
SF-539 CNS = test system: SF-539 CNS
CAKI-1 renal = test system: CAKI-1 renal
KM12 colon = test system: KM12 colon
SK-OV-3 ovarian = test system: SK-OV-3 ovarian
TK-10 renal = test system: TK-10 renal
A498 renal = test system: A498 renal
RPMI-8226 leukemia = test system: RPMI-8226 leukemia
SR leukemia = test system: SR leukemia

Compound | TGI (NCI-H23 lung) | TGI (OVCAR-4 ovarian) | TGI (SNB-75 CNS) | TGI (UO-31 renal) | TGI (A549 NSCLC) | TGI (MDA-N) | TGI (HCC-2998 colon) | TGI (U251 CNS) | TGI (MDA-MB-231 breast) | TGI (SK-MEL-28 melanoma) | TGI (IGROV1 ovarian) | TGI (SF-539 CNS) | TGI (CAKI-1 renal) | TGI (KM12 colon) | TGI (SK-OV-3 ovarian) | TGI (TK-10 renal) | TGI (A498 renal) | TGI (RPMI-8226 leukemia) | TGI (SR leukemia)
Cc1cc(Br)cc(C)c1NC(=O)C(=O)C1C(=O)C(CC2C(=O)c3ccccc3C2=O)C(=O)CC1(C)C (stereo not drawn) | > 100 µM | > 100 µM | > 100 µM | 92.7 µM | > 100 µM | > 100 µM | > 100 µM | > 100 µM | > 100 µM | > 100 µM | > 100 µM | > 100 µM | > 100 µM | > 100 µM | > 100 µM | > 100 µM | – | – | –
CC1(C)O[C@@H](CP(c2ccccc2)c2ccccc2)[C@H](CP(c2ccccc2)c2ccccc2)O1 | 14.6 µM | > 100 µM | 27.9 µM | – | 85.7 µM | 11.5 µM | – | 20.2 µM | 31.9 µM | 28 µM | 16.5 µM | 21.1 µM | > 100 µM | 54.7 µM | > 100 µM | 87 µM | 39.1 µM | 59.1 µM | –
O=C(N/C(=C/c1ccc(Cl)cc1)c1nc2ccccc2c(=O)n1Nc1ccc([N+](=O)[O-])cc1[N+](=O)[O-])c1ccccc1 | > 100 µM | > 100 µM | > 100 µM | > 100 µM | > 100 µM | > 100 µM | > 100 µM | > 100 µM | > 100 µM | > 100 µM | > 100 µM | > 100 µM | > 100 µM | > 100 µM | > 100 µM | > 100 µM | – | – | > 100 µM
CC1C(=O)C23OC[C@@]1(C)C1(O)CC[C@@H](C)[C@]21CC3=O (stereo partly drawn) | > 100 µM | > 100 µM | > 100 µM | > 100 µM | > 100 µM | > 100 µM | > 100 µM | > 100 µM | > 100 µM | > 100 µM | > 100 µM | > 100 µM | – | > 100 µM | > 100 µM | > 100 µM | – | > 100 µM | > 100 µM
CCCCCCCCCC(=O)CC(=O)c1c(O)cc(O)cc1O | 35.9 µM | 35.8 µM | 69.6 µM | 31.7 µM | > 75 µM | 38 µM | 31.4 µM | > 75 µM | > 75 µM | 72.8 µM | > 75 µM | 43.3 µM | > 75 µM | 42.8 µM | > 75 µM | > 75 µM | 71.3 µM | 37.1 µM | –
CC1OC(OC2C(O[C@@H]3C[C@@H]4CC[C@@H]5[C@H](CC[C@]6(C)[C@@H]7[C@H](C[C@@H]56)O[C@]5(CC[C@@H](C)CO5)[C@H]7C)[C@@]4(C)C[C@H]3O)OC(CO)C(OC3OC(CO)C(O)C(O)C3O)C2O)C(O)C(O)C1O (stereo partly drawn) | 4.12 µM | 4.76 µM | 5.76 µM | 3.81 µM | 3.02 µM | 3.37 µM | – | 3.2 µM | 3.39 µM | 3.13 µM | 2.39 µM | 3.16 µM | 3.35 µM | 4.49 µM | 3.17 µM | – | 3.1 µM | 11.3 µM | –
O=C(CCO)OCCCCCC/C=C\CCCCCC/C=C\CCCCCCCCOC(=O)CCO | 31.8 µM | 55.9 µM | 34 µM | 32.6 µM | 29.6 µM | 33.2 µM | 30.1 µM | 30.3 µM | 32.5 µM | 37.5 µM | 31.2 µM | > 100 µM | 39.3 µM | 46 µM | 37.5 µM | 31.5 µM | 50 µM | – | –
CCOC(=O)CCC(NC(=O)c1ccc(Oc2nc3ccccc3nc2C(=O)OCC)cc1)C(=O)OCC (stereo not drawn) | > 100 µM | > 100 µM | 98.1 µM | > 100 µM | > 100 µM | > 100 µM | > 100 µM | > 100 µM | 95.9 µM | > 100 µM | > 100 µM | > 100 µM | > 100 µM | > 100 µM | – | > 100 µM | – | > 100 µM | > 100 µM
Cc1ccccc1NC(=O)C(=O)Cc1cnc2ccccc2n1 | > 100 µM | > 100 µM | – | > 100 µM | > 100 µM | > 100 µM | > 100 µM | > 100 µM | > 100 µM | > 100 µM | > 100 µM | > 100 µM | > 100 µM | > 100 µM | > 100 µM | > 100 µM | > 100 µM | > 100 µM | –
Cc1cc(=O)oc2c(CNC(C(=O)O)C(C)O)c(O)ccc12 (stereo not drawn) | > 100 µM | > 100 µM | > 100 µM | > 100 µM | > 100 µM | > 100 µM | – | > 100 µM | > 100 µM | > 100 µM | > 100 µM | > 100 µM | > 100 µM | > 100 µM | > 100 µM | > 100 µM | – | > 100 µM | > 100 µM
